For one assay, the target named is T1, human CRTH2 (Homo sapiens, UniProt Q9Y5Y4).
T1 sequence (Q9Y5Y4 1-395): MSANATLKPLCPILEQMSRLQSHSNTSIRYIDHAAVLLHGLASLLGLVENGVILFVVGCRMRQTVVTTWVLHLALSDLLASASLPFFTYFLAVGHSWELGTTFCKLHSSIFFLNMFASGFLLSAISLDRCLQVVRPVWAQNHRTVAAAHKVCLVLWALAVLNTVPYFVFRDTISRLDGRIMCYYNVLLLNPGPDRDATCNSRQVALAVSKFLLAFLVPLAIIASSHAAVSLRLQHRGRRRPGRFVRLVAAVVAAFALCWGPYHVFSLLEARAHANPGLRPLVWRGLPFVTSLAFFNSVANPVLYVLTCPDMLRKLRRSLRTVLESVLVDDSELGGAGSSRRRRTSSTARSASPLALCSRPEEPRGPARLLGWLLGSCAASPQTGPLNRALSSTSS
Description: Human CRTH2 Receptor Binding Assay (whole cell, [3H]ramatroban competition). More on the design: expressed in transfected cells; host or cells: CHO-K1 (co-transfected with G-alpha16). As to conditions: CHO-K1 cells expressing human CRTH2 and G-alpha16; 20 nM [3H]ramatroban; 1 hour, room temperature. From the text:
A whole cell receptor binding assay using [^3H]ramatroban as the competing radioactive ligand was employed to evaluate the compound binding activity to human CRTH2. The radioactive ligand [^3H]ramatroban was synthesized according to Sugimoto et. al. (Eur. J. Pharmacol. 524, 30-37, 2005) to a specific activity of 42 Ci/mmol.
A cell line stably expressing human CRTH2 was established by transfecting CHO-K1 cells with two mammalian expression vectors that harbored human CRTH2 and G-alpha16 cDNAs, respectively, using FuGene® 6 transfection reagent (from Roche). Stable clones expressing CRTH2 were selected by staining each clone with BM16 (BD Pharmingen™ from BD Biosciences, a division of Becton, Dickinson and Company), which is a rat monoclonal antibody to human CRTH2. The cells were maintained as monolayer cultures in Ham's F-12 medium containing 10% fetal bovine serum, 100 units/mL penicillin, 100 μg/mL streptomycin, 2 mM glutamine, 0.5 mg/mL G418 (geneticin) for CRTH2, and 0.2 mg/mL hygromycin-B (for G-alpha 16). For whole cell receptor binding assay, the monolayer cells were rinsed once with PBS (phosphate buffered saline), dissociated using ethylenediaminetetraacetate (Versene™ EDTA from Lonza Inc.), and suspended in PBS containing 10 mM MgCl2 and 0.06% BSA (bovine serum albumin) at 1.5×10^6 cells/mL.
The binding reactions (0.2 mL) were performed in 96-well plates at room temperature in PBS containing 1.5×10^5 cells, 10 mM MgCl2, 0.06% BSA, 20 nM [^3H]ramatroban, and test compound at various concentrations. After 1 hour of binding reactions, the cells were harvested on GF™/B filter microplates (microtiter plates with embedded glass fiber from PerkinElmer, Inc.) and washed 5 times with PBS using a Filtermate™ Harvester (a cell harvester that harvests and washes cells from microplates from PerkinElmer, Inc.). The radioactivities bound to the cells were determined using a microplate scintillation counter (TopCount® NXT, from PerkinElmer, Inc.) after adding 50 μL of Microscint™ 20 scintillation fluid (from PerkinElmer, Inc.) to each well of the filter plates. The radioactivity from non-specific binding was determined by replacing compound with 10 μM of 15(R)-15-methyl PGD2 (from Cayman Chemical Company) in the reaction mixtures. The radioactivity bound to the cells in the absence of compound (total binding) was determined by replacing compound with 0.25% of DMSO (dimethyl sulfoxide) in the reaction mixture. Specific binding data were obtained by subtracting the radioactivity of non-specific binding from each binding data.
(§1) The IC50 value is defined as the concentration of the tested compound that is required for 50% inhibition of total specific binding. In order to calculate the IC50 value, the percent inhibition data were determined for 7 concentrations for each compound. The percent inhibition for a compound at each concentration was calculated according to the following formula, [1−(specific binding in the presence of compound)/(total specific binding)]×100. The IC50 value was then obtained by fitting the percent inhibition data to a sigmoidal dose-response (4 parameter logistic) model in the XLfit® software Excel add-in program [from ID Business Solutions Ltd., model 205, where F(x)=(A+(B−A)/(1+((C/x)̂D)))].

Assay [1] deals with T2, thromboxane A2 receptor (TP) (Homo sapiens, UniProt P21731).
T2 construct: using human platelets as the source of the receptor; from tissue; host or cells: human platelets (whole platelets, 5x10^7 per well)
T2 sequence (P21731 1-343): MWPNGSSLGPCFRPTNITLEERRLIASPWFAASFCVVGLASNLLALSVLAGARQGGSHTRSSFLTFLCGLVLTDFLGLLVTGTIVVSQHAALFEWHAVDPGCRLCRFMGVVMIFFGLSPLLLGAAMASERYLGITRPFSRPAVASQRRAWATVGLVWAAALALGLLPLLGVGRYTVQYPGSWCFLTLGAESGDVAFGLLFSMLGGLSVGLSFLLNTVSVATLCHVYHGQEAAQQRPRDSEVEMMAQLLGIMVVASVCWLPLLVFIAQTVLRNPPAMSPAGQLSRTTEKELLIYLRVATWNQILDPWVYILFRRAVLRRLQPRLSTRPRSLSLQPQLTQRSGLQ
The assay is described as follows: Human Thromboxane A2 Receptor Binding Assay. The settings on record: human platelets; 10 nM [3H]SQ29548; 1 hour, room temperature.
Source text: The thromboxane A2 receptor (TP) plays a key role in hemostasis as its abnormality leads to bleeding disorders. To avoid the potential liability of bleeding disorders, the binding activity of certain compounds of the present invention against TP was monitored by a receptor binding assay using human platelets as the source of the receptor and [^3H]SQ29548 (generically named (5Z)-[5,6-^3H]-7-[(1S,2R,3R,4R)-3-[[2-[(phenylamino)carbonyl]hydrazinyl]methyl]-7-oxabicyclo[2.2.1]hept-2-yl]-5-heptenoic acid, from PerkinElmer Inc.) as the competing radioactive ligand.
The TP binding reactions (0.2 mL) were performed in 96-well plates at room temperature in PBS containing 5×10^7 platelets, 10 mM MgCl2, 0.06% BSA, 10 nM [^3H]SQ29548, and the test compound at various concentrations. After 1 hour of binding reactions, the platelets were harvested on GF/B filter plates (as previously described from PerkinElmer Inc.) and washed 5 times with PBS using a Filtermate™ Harvester (as previously described from PerkinElmer Inc.). The radioactivities bound to the platelets were determined using a microplate scintillation counter (TopCount® NXT, from PerkinElmer Inc.) after adding 50 μL of Microscint™ 20 scintillation fluid (from PerkinElmer Inc.) to each well of the filter plates. The radioactivity from non-specific binding was determined by replacing the compound with 10 μM of ramatroban (BAY-u3405, from Cayman Chemical Company) in the reaction mixtures. The radioactivity bound to the platelets in the absence of compound (total binding) was determined by replacing the compound with 0.25% of DMSO in the reaction mixture. Specific binding data were obtained by subtracting the radioactivity of non-specific binding from each binding data.
as §1

SMILES strings stand for the structures. Where only a bound is given, the exact number is not on record here.

The record followed here is patent publication US20100041760A1, “MONOARYL AMINOTETRALINES” (priority 2008, published 2010).

The term IC50 denotes the point on the concentration scale where inhibition reaches its midpoint. A low value points to greater potency in that assay. Turning to `CN([C@@H]1CCCc2c(OCC(=O)O)cccc21)S(=O)(=O)c1cc(F)cc(C(F)(F)F)c1` [Example 1-1, {(R)-5-[(3-fluoro-5-trifluoromethyl-benzenesulfonyl)-methyl-amino]-5,6,7,8-tetrahydro-naphthalen-1-yloxy}-acetic acid], the IC50 on human CRTH2 was 381 nM; in assay [1], more than 10000 nM.

`CCN(CC)c1cc(C(F)(F)F)cc(S(=O)(=O)N(C)[C@@H]2CCCc3c(OCC(=O)O)cccc32)c1` [Example 4-2, {(R)-5-[(3-diethylamino-5-trifluoromethyl-benzenesulfonyl)-methyl-amino]-5,6,7,8-tetrahydro-naphthalen-1-yloxy}-acetic acid]: the results for the concentration for half-maximal inhibition (IC50) (on human CRTH2; in assay [1]) were 773 nM and more than 10000 nM, respectively.

For `CCOc1cc(C(F)(F)F)cc(S(=O)(=O)N(C)[C@@H]2CCCc3c(OCC(=O)O)cccc32)c1` [Example 9-2, {(R)-5-[(3-ethoxy-5-trifluoromethyl-benzenesulfonyl)-methyl-amino]-5,6,7,8-tetrahydro-naphthalen-1-yloxy}-acetic acid], the IC50 is 399 nM at human CRTH2 and more than 10000 nM in assay [1].

With `CN([C@@H]1CCCc2c(OCC(=O)O)cccc21)S(=O)(=O)c1cc(OC2CCCC2)cc(C(F)(F)F)c1` [Example 9-3, {(R)-5-[(3-cyclopentyloxy-5-trifluoromethyl-benzenesulfonyl)-methyl-amino]-5,6,7,8-tetrahydro-naphthalen-1-yloxy}-acetic acid], the IC50 at human CRTH2 was 423 nM; in assay [1], 8520 nM.

As for `O=C(O)COc1cccc2c1CCC[C@H]2NS(=O)(=O)c1cc(Cl)cc(Cl)c1` [Example 10-1, [(R)-5-(3,5-dichloro-benzenesulfonylamino)-5,6,7,8-tetrahydro-naphthalen-1-yloxy]-acetic acid], the results for the IC50 (on human CRTH2; in assay [1]) were 340 nM and 126 nM, respectively.

In the case of `O=C(O)COc1cccc2c1CCC[C@H]2NS(=O)(=O)c1cc(F)cc(F)c1` [Example 10-5, [(R)-5-(3,5-difluoro-benzenesulfonylamino)-5,6,7,8-tetrahydro-naphthalen-1-yloxy]-acetic acid], the IC50 was 13 nM at human CRTH2 and 2420 nM in assay [1].

On to `O=C(O)COc1cccc2c1CCC[C@H]2NS(=O)(=O)c1cc(F)cc(C(F)(F)F)c1` [Example 10-12, [(R)-5-(3-fluoro-5-trifluoromethyl-benzenesulfonylamino)-5,6,7,8-tetrahydro-naphthalen-1-yloxy]-acetic acid], for which the IC50 on human CRTH2 came out at 20 nM; in assay [1], 342 nM.
